As usually defined, the inhibition is the change of the read-out against control, counted positive when it falls.

The results in this text go back to ChEMBL document CHEMBL4052759, “Discovery of DS79182026: A potent orally active hepcidin production inhibitor” (Bioorg Med Chem Lett, 2017).

Data set [1] deals with Ribosomal protein S6 kinase alpha-1 (Homo sapiens) (UniProt Q15418). The data set is described as follows: Inhibition of RSK1 (unknown origin) at 0.49 uM relative to control.
Data set [2] addresses Ephrin type-B receptor 2 (Homo sapiens) (UniProt P29323). Description: Inhibition of EPHB2 (unknown origin) at 0.49 uM relative to control.
Data set [3] concerns the target PAS domain-containing serine/threonine-protein kinase (Homo sapiens) (UniProt Q96RG2). The data set is described as follows: Inhibition of PASK (unknown origin) at 0.49 uM relative to control.
For data set [4], the target named is Calcium/calmodulin-dependent protein kinase type II subunit beta (Homo sapiens) (UniProt Q13554). The data set is described as follows: Inhibition of CaMK2-beta (unknown origin) at 0.49 uM relative to control.
The target of data set [5] is STE20-like serine/threonine-protein kinase (Homo sapiens) (UniProt Q9H2G2). Description: Inhibition of SLK (unknown origin) at 0.49 uM relative to control.
The target of data set [6] is Dual specificity tyrosine-phosphorylation-regulated kinase 1A (Homo sapiens) (UniProt Q13627). Description: Inhibition of DYRK1a (unknown origin) at 0.49 uM relative to control.
Data set [7] concerns the target RAC-gamma serine/threonine-protein kinase (Homo sapiens) (UniProt Q9Y243). Description: Inhibition of AKT3 (unknown origin) at 0.49 uM relative to control.
The target of data set [8] is Serine/threonine-protein kinase Sgk3 (Homo sapiens) (UniProt Q96BR1). Description: Inhibition of SGK3 (unknown origin) at 0.49 uM relative to control.
In data set [9] the target is Leukocyte tyrosine kinase receptor (Homo sapiens) (UniProt P29376). Description: Inhibition of LTK (unknown origin) at 0.49 uM relative to control.
For data set [10], the target named is Cyclin-dependent kinase 2 (Homo sapiens) (UniProt P24941). The data set is described as follows: Inhibition of CDK2 (unknown origin) at 0.078 uM relative to control.
Data set [11] concerns the target Serine/threonine-protein kinase Chk2 (Homo sapiens) (UniProt O96017). The data set is described as follows: Inhibition of CHK2 (unknown origin) at 0.078 uM relative to control.
Data set [12] deals with T1, Aurora kinase A (Homo sapiens) (UniProt O14965).
T1 sequence (whole entry): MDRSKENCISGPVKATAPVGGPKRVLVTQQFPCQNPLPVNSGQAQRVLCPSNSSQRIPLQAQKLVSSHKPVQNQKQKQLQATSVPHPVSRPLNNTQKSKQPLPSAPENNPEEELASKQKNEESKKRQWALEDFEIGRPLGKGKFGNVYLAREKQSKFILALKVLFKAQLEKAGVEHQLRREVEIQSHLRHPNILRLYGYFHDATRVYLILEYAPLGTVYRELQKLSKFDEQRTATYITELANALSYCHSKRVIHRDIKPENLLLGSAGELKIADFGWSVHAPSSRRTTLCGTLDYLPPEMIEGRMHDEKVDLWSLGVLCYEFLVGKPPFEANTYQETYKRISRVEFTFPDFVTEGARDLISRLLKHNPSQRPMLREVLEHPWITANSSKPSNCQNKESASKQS
The data set is described as follows: Inhibition of AurA (unknown origin) at 0.078 uM relative to control.

The target of data set [13] is T2, Serine/threonine-protein kinase Chk1 (Homo sapiens) (UniProt O14757).
T2 sequence (whole entry): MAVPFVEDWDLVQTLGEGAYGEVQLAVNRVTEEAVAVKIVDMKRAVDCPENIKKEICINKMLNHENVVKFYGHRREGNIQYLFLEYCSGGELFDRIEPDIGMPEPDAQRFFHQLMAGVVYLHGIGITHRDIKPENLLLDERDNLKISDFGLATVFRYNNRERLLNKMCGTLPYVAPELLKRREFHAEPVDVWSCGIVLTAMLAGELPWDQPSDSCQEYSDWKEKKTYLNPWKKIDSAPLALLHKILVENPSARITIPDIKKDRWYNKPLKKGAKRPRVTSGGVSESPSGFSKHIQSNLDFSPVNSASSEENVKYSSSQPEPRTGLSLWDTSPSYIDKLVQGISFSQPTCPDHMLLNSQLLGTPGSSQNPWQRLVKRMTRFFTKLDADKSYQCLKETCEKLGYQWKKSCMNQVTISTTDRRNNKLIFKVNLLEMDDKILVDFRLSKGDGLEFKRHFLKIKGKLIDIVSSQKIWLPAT
The data set is described as follows: Inhibition of CHK1 (unknown origin) at 0.078 uM relative to control.

In data set [14] the target is Tyrosine-protein kinase Fyn (Homo sapiens) (UniProt P06241). Description: Inhibition of FYN (unknown origin) at 0.078 uM relative to control.
The target in data set [15] is Serine/threonine-protein kinase pim-1 (Homo sapiens) (UniProt P11309). The data set is described as follows: Inhibition of PIM1 (unknown origin) at 0.45 uM relative to control.
Data set [16] is described as follows: Metabolic stability in mouse liver microsomes assessed as […] by measuring parent compound remaining at 1 uM after 0.5 hrs by LC-MS/MS analysis. In kind it is ADME. Conditions: read-out: Stability. (Liver microsomes are vesicles of endoplasmic reticulum, rich in cytochrome P450 enzymes.)
Data set [17] has as its target Dual specificity tyrosine-phosphorylation-regulated kinase 1B (Homo sapiens) (UniProt Q9Y463). Description: Inhibition of DYRK1B (unknown origin) at 0.45 uM relative to control.
Data set [18] deals with Calcium/calmodulin-dependent protein kinase type II subunit alpha (Homo sapiens) (UniProt Q9UQM7). Description: Inhibition of CaMK2a (unknown origin) at 0.45 uM relative to control.
In data set [19] the target is Protein kinase C gamma type (Homo sapiens) (UniProt P05129). The data set is described as follows: Inhibition of PKC-gamma (unknown origin) at 0.45 uM relative to control.
Data set [20] has as its target CDK4/Cyclin D3 (Homo sapiens) (UniProt P11802+P30281). Description: Inhibition of CDK4/CyclinD3 (unknown origin) at 0.45 uM relative to control. In kind it is protein-complex assay.
The target in data set [21] is Proto-oncogene tyrosine-protein kinase Src (Homo sapiens) (UniProt P12931). Description: Inhibition of SRC (unknown origin) at 0.45 uM relative to control.
Data set [22] has as its target Calcium/calmodulin-dependent protein kinase type 1D (Homo sapiens) (UniProt Q8IU85). The data set is described as follows: Inhibition of CamK1d (unknown origin) at 0.45 uM relative to control.
In data set [23] the target is Calcium/calmodulin-dependent protein kinase type II subunit beta (Homo sapiens) (UniProt Q13554). The data set is described as follows: Inhibition of CAMK2 (unknown origin) at 0.45 uM relative to control.
The target of data set [24] is Tyrosine-protein kinase Lyn (Homo sapiens) (UniProt P07948). The data set is described as follows: Inhibition of LYN (unknown origin) at 0.45 uM relative to control.
Data set [25] addresses Dual specificity tyrosine-phosphorylation-regulated kinase 3 (Homo sapiens) (UniProt O43781). The data set is described as follows: Inhibition of DYRK3 (unknown origin) at 0.45 uM relative to control.
For data set [26], the target named is Vascular endothelial growth factor receptor 2 (Homo sapiens) (UniProt P35968). The data set is described as follows: Inhibition of KDR (unknown origin) at 0.45 uM relative to control.
Data set [27] concerns the target Protein kinase C alpha (Homo sapiens) (UniProt P17252). The data set is described as follows: Inhibition of PKC-alpha (unknown origin) at 0.45 uM relative to control.

`Cc1[nH]nc(C2CC2)c1-c1ccc2c(NC(=O)C3CC3)noc2c1`: the inhibition stood at 2.3% in [1]; 5.3% in [2]; 1.3% in [3]; 2.3% in [4]; 4.7% in data set [5]; 4.7% in [6]. Also, the inhibition in data set [7] was 7.3%; in [8], 1.3%; in [9], -3.3%.

`COC(=O)Nc1noc2cc(-c3c(-c4ccccn4)n[nH]c3C)ccc12`: the inhibition in data set [10] is -4.3%; in [11] it was 0.7%; in data set [12], -1.7%; in data set [13] it was 1.3%; in [14], -4.3%.

In the case of `Cc1n[nH]c(C)c1-c1ccc2c(NC(=O)c3ccc(N4CCN(C)CC4)cc3)n[nH]c2c1`, the inhibition is 4% in data set [15]; 19.7% in [17]; 2.7% in data set [18]; 18.7% in data set [19]; -8.3% in data set [20]; 51.7% in [21]. The inhibition was determined as 0.7% in data set [22]; 19.7% in data set [23]; 32.3% in data set [24]; 2% in [25]; 35.7% in data set [26]; 13.7% in data set [27]. In [16], the remaining at 0.5 h, 1 µM came out at 94%.
